Source: PMC10011573, “Development of novel broad-spectrum antimicrobial lipopeptides derived from plantaricin NC8 β” (Scientific Reports, 2023)
Values after ≈ are worked out from the molar mass of the structure shown. Where two headings read alike, the source gives them in different places. Residues, ends and D or L forms follow the SMILES beside them. *: point of attachment. Pentanoyl = CCCCC(=O)*

Tests used:
[1] = system: S. aureus (ATCC 29213); type: cell-based; settings: ATCC 29213, 20 h
[2] = system: E. coli
Protocol: (§1) In order to evaluate the risk of the development of resistance towards the lipopeptide, a serial passage assay was conducted. […] MIC and MBC were determined for passages 0, 10, 20 and 30, using the broth microdilution method and compared with the unexposed bacteria (passage 0).

[3] = system: S. aureus
Protocol: as §1

[4] = system: human erythrocytes; test: Hemolytic activity; type: cell-based; settings: 15% suspension in PBS, 1 h, 37 °C, absorbance 540 nm, highest tested concentration 100 µM
[5] = Carboxyfluorescein release assay, mammalian liposome model; type: biochemical; settings: 65:5:30 POPC:POPS:Chol. liposomes, 25 µM lipid, 10 mM PBS pH 7.4, 10^–5–10^2 µM peptide, 60 min, fluorescence, Hill fit, n = 3; read-out: EC50 Mammalial (concentration that triggers 50% CF release)
In short: (§2)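 CF-loaded extruded 0.1 µm unilamellar liposomes: bacterial POPC:POPG 75:25, mammalian POPC:POPS:Chol 65:5:30. Liposomes at 25 µM lipid in PBS pH 7.4 incubated with peptide (10^–5–10^2 µM; n = 3), fluorescence read every 2.5 min for 1 h. Release normalized to 1% Triton X-100; EC50 from Hill-1 fit.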

[6] = Carboxyfluorescein release assay, bacterial liposome model; type: biochemical; settings: 75:25 POPC:POPG liposomes, 25 µM lipid, 10 mM PBS pH 7.4, 10^–5–10^2 µM peptide, 60 min, fluorescence, Hill fit, n = 3; read-out: EC50 Bacterial (concentration that triggers 50% CF release)
In short: as §2

[7] = Dynamic light scattering, critical aggregation concentration; type: physicochemical; settings: DLS scattering intensity at 90°, 10 mM PBS pH 7.4, serial dilution 100 µM to 0.01 nM, 22 °C, average of 10 runs of 30 s; estimated
Protocol: Lipopeptide aggregation was evaluated on a ALV/CGS-8F Platform (ALV-GmbH, Langen, Germany) equipped with a […] He–Ne laser. Scattered light was collected at 90°. PBS (10 mM, pH 7.4) was chosen as buffer, and filtered with a 0.22 µm filter prior to use. The samples were prepared in a cylindrical glass cuvette immersed in refractive-index matching toluene. The peptides were serially diluted between 100 µM and 0.01 nM, sonicated for 1 min and incubated for 5 min at 22 °C and vortexed prior to measuring. The temperature was controlled throughout the experiment with the use of a circulating water bath. Data were analysed with ALV-Correlator (Version 3.0, ALV-GmbH, Langen, Germany) software, and the scattering intensity was obtained through an average of 10 consecutive 30 s runs.

[8] = E. coli p0 (unexposed bacteria, passage 0)
[9] = E. coli p10, cultured with 1 µM L-6-C5 in LB-broth
[10] = E. coli p20, cultured with 1 µM L-6-C5 in LB-broth
[11] = E. coli p30, cultured with 1 µM L-6-C5 in LB-broth
[12] = S. aureus p0 (unexposed bacteria, passage 0)
[13] = S. aureus p10, cultured with 1 µM L-6-C5 in LB-broth
[14] = S. aureus p20, cultured with 1 µM L-6-C5 in LB-broth
[15] = S. aureus p30, cultured with 1 µM L-6-C5 in LB-broth

CCCCC(=O)N[C@@H](CC(C)C)C(=O)NCC(=O)N[C@H](C(=O)N[C@@H](CCCCN)C(=O)N[C@H](C(=O)N[C@@H](CC(C)C)C(=O)N[C@@H](Cc1c[nH]c2ccccc12)C(=O)N[C@@H](CO)C(=O)N[C@@H](C)C(=O)N[C@@H](Cc1ccc(O)cc1)C(=O)N[C@@H](CCCCN)C(=O)N[C@@H](Cc1c[nH]cn1)C(=O)N[C@@H](CCCNC(=N)N)C(=O)N[C@@H](CCCCN)C(=O)N[C@H](C(=O)N[C@H](C(N)=O)[C@@H](C)CC)[C@@H](C)O)[C@@H](C)CC)[C@@H](C)CC [L-6-C5] (Pentanoyl-LGIKILWSAYKHRKTI-NH2)
S. aureus MBC, lipopeptide alone [1]: 6.25 µM
S. aureus MIC, lipopeptide alone [1]: 6.25 µM
MBC [2, 8]: 6.3 µM (≈ 12.7 µg/mL)
MIC [2, 8]: 6.3 µM (≈ 12.7 µg/mL)
MBC [2, 9]: 6.3 µM (≈ 12.7 µg/mL)
MIC [2, 9]: 6.3 µM (≈ 12.7 µg/mL)
MBC [2, 10]: 6.3 µM (≈ 12.7 µg/mL)
MIC [2, 10]: 6.3 µM (≈ 12.7 µg/mL)
MBC [2, 11]: 6.3 µM (≈ 12.7 µg/mL)
MIC [2, 11]: 6.3 µM (≈ 12.7 µg/mL)
MBC [3, 12]: 6.3 µM (≈ 12.7 µg/mL)
MIC [3, 12]: 6.3 µM (≈ 12.7 µg/mL)
MBC [3, 13]: 6.3 µM (≈ 12.7 µg/mL)
MIC [3, 13]: 6.3 µM (≈ 12.7 µg/mL)
MBC [3, 14]: 6.3 µM (≈ 12.7 µg/mL)
MIC [3, 14]: 6.3 µM (≈ 12.7 µg/mL)
MBC [3, 15]: 6.3 µM (≈ 12.7 µg/mL)
MIC [3, 15]: 6.3 µM (≈ 12.7 µg/mL)
HC, hemolytic concentration at 5% hemolytic activity [4]: > 100 µM
EC50 [5]: 10.5 µM
EC50 [6]: 0.11 µM
critical aggregation concentration (CAC) [7]: 5.6 µM
